# Source: patent US11045456B2, “Compositions and methods for treating COPD and other inflammatory conditions” (Georgia State University Research Foundation, Inc., priority 2015, dated 2021)
# Numbered stars: 1 amine (or outer) side, 2 acyl side, 3 side chain; on linkers, the order of the positions; unused ones are H or OH. Bridge positions count the residues as written; N and C are the ends. Square brackets hold non-standard residues; d marks the D form. Peptide text beside a SMILES is read from it. I, II: the chains in the order shown. Actinocin(9to1) = Cc1c2oc3c(C)ccc(C(=O)[*:1])c3nc-2c(C(=O)[*:2])c(N)c1=O; NMeV = CN[C@H](C(=O)O)C(C)C; Sar = CNCC(=O)O
# Experiments:
# PDE4B2 = PDE4B2 expression (RT-PCR) in BEAS-2B cells; assay type: cell-based, human; conditions: for NTHi-induced PDE4B2 expression (synergy with NTHi): cAMP elevator / PKA or Epac activator with NTHi
# Description: (§1) Bacterial strains and culture condition. Clinical isolates of NTHi strain 12 were used in this study (Ishinaga et al., EMBO J., 26(4):1150-1162, 2007). Bacteria were grown on chocolate agar plates at 37° C. in an atmosphere of 5% CO2 overnight and subsequently inoculated in brain heart infusion (BHI) broth supplemented with 3.5 μg/mL NAD and hemoglobin (BD Biosciences). After overnight incubation, the bacteria were subcultured into fresh broth and the log phase bacteria, monitored by measurement of optical density (OD) value, were washed and suspended in DMEM for in vitro cell experiments and in isotonic saline for in vivo animal experiments. For all in vitro experiments except the dose dependent experiment, NTHi was treated at multiplicity of infection (MOI) of 50.
# (§2) Cell culture. All media described below were supplemented with 10% fetal bovine serum (Sigma-Aldrich). Human bronchial epithelial BEAS-2B cells were maintained in RPMI medium (Life Technologies) (ATCC® CRL-9609™). Human primary bronchial epithelial NHBE (Lonza) cells were maintained in bronchial epithelial growth media (BEGM) supplemented with BEGM SingleQuots (Jono et al., J. Biol. Chem. 277(47):45547-45557, 2002). BEAS-2B cells stably expressing human PDE4B2 (PDE4B2-stable cells) were obtained by plasmid transfection following Geneticin selection (300 μg/mL). Cells were cultured in a humidified atmosphere of 5% CO2 at 37° C.
# Plasmids, transfections and luciferase assay. The expression plasmids, constitutively active forms of IKKα (IKKα-CA, S176E/S180E) and IKKβ (IKKβ-CA, S177E/S181E) and a dominant negative form of IκBα (IκBα-DN, S32A/S36A) were previously described (Shuto et al., Proc. Natl. Acad. Sci. USA, 98(15):8774-8779, 2001; Ishinaga et al., supra). Luciferase reporter construct of NF-κB (pGL4.32) was purchased from Promega. Human PDE4B2, p65 (RelA) and PKA-Cβ1/2 cDNA sequences were generated and inserted into the BamHI and HindIII sites of the pcDNA3.1/mycHis(−) vector. Mutant p65 and PDE4B2-D392A were generated by using PRIMESTAR® Max (Takara). Empty vector was used as a control and was also added where necessary to ensure an equivalent amount of input DNA. All transient transfections were carried out in triplicate using TRANSIT-LT1® reagent (Minis) following the manufacturer's instruction.
# p65 = p65 phosphorylation by Phos-tag PAGE in BEAS-2B cells; assay type: cell-based, human
# Description: Phos-tag PAGE. Recombinant p65 proteins or nuclear extracts recovered without EDTA/EGTA were separated by SDS-PAGE, with 6% gels containing 50 μM Mn^2+-Phos-tag Acrylamide and transferred to PVDF membrane according to the manufacture's instructions (Kinoshita et al., Mol. Cell. Proteomics 5(4):749-757, 2006.
# PDE4B [1] = assay: PDE4B mRNA expression (Q-PCR) in BEAS-2B cells stimulated with NTHi; assay type: cell-based, human; conditions: BEAS-2B; ActD 5 ng/ml and Rof 0.1 μM 1 hour, then 1.5-hour NTHi
# Description: as §1, §2
# [2] = tested on: NTHi-induced inflammation; assay: NTHi-induced inflammation in mouse lung (proinflammatory mediator mRNA, H&E staining); assay type: in vivo; conditions: DEX 2 mg/kg i.p. and Rof 5 mg/kg i.p. 2 h before NTHi 5×10^7 CFU/lung
# Description: Mice and animal experiments. For NTHi-induced inflammation in C57BL/6J mice (7 weeks old), anaesthetized mice were intratracheally inoculated with NTHi at a concentration of 5×10^7 CFU per mouse and saline was inoculated as control.
# . We pre-treated BEAS-2B cells with Rof (1 μM), FSK (1 μM), Iso (0.1 μM) and DEX (10 nM) for 1 h followed by 1.5 h stimulation with NTHi, and PDE4B mRNA expression was analyzed by Q-PCR (FIGS. 7A and 7B). We also pre-treated BEAS-2B cells with Rof (0.1 μM) and DEX (6.5 nM) for 1 h followed by 1.5 h stimulation with NTHi, and PDE4B2 mRNA expression was analyzed by semi-quantitative RT-PCR (FIG. 7C). To assess protein expression, BEAS-2B cells were pre-treated with Rof (0.1 μM) and DEX (100 nM) for 1 h followed by a 5 h stimulation with NTHi, and PDE4B protein expression was analyzed by immunoblot (FIG. 7D). Each target data were normalized with NTHi treated. Data are mean±SD (n=3); *p<0.05 vs NTHi; ^†p<0.05 vs Rof+NTHi. […] After 5 h, mRNA expression in lung tissues were analyzed by Q-PCR for assessing the expression of PDE4B or various proinflammatory mediators and lung tissues were stained against PDE4B (Magnification ×200, Scale bar, 100 μm) (FIG. 7F) and assessed for inflammation using H&E staining (FIG. 7H).
# PDE4B [3] = assay: PDE4B mRNA expression in lung tissues of NTHi-inoculated mice; conditions: mouse lung; DEX 2 mg/kg i.p. and Rof 5 mg/kg i.p. 2 h before NTHi; after 5 h
# [4] = BEAS-2B cells, inhibitor treatment
structure (smiles),measurement,setting,value
"O=P1(O)OC[C@H]2O[C@@H](n3cnc4c(Nc5ccccc5)ncnc43)[C@@H](O)C2O1 (stereo partly shown) [6-Phe-cAMP, N^6-Phenyl-cAMP]",NTHi-induced PDE4B2 expression (synergy with NTHi),PDE4B2; BEAS-2B cells,synergistically enhanced
same,PDE4B2 expression,PDE4B2; in IKKβ-CA- but not IKKα-CA-transfected BEAS-2B cells,synergistically enhanced
same,phosphorylation of p65 (induction),p65; roflumilast as co-treatment with NTHi,induced this phosphorylation
CO[C@@H]1[C@@H]2OP(=O)(O)OC[C@H]2O[C@H]1n1c(Sc2ccc(Cl)cc2)nc2c(N)ncnc21 [8-pCPT-2′-O-Me-cAMP],NTHi-induced PDE4B2 expression (synergy with NTHi),PDE4B2; BEAS-2B cells,did not markedly synergize
"Cc1c2oc3c(C)ccc(C(=O)N[C@@H]4C(=O)N[C@H](C(C)C)C(=O)N5CCC[C@H]5C(=O)N(C)CC(=O)N(C)[C@@H](C(C)C)C(=O)O[C@@H]4C)c3nc-2c(C(=O)N[C@@H]2C(=O)N[C@H](C(C)C)C(=O)N3CCC[C@H]3C(=O)N(C)CC(=O)N(C)[C@@H](C(C)C)C(=O)O[C@@H]2C)c(N)c1=O [ActD, actinomycin D] (I: T[dV]P[Sar][NMeV] / II: T[dV]P[Sar][NMeV]; ester I:1-I:C, II:1-II:C; linker I:N-II:N via Actinocin(9to1))",PDE4B induction by NTHi and roflumilast,PDE4B [1],completely abrogated
"C[C@@H]1C[C@H]2[C@@H]3CCC4=CC(=O)C=C[C@]4(C)[C@@]3(F)[C@@H](O)C[C@]2(C)[C@@]1(O)C(=O)CO [Dexamethasone, dexamethasone]",efficacy of Rof in suppressing NTHi-induced inflammation,[2],improves the efficacy of Rof
same,PDE4B induction by NTHi and Rof,PDE4B [3],suppresses
O=S(=O)(NCCNC/C=C/c1ccc(Br)cc1)c1cccc2cnccc12 [H89],phosphorylation of p65 induced by overexpression of PKA-Cβ1 (inhibition),p65,inhibited
NC(=O)Nc1sc(-c2ccc(F)cc2)cc1C(N)=O [IKKβ inhibitor],induction of PDE4B2 by roflumilast alone,PDE4B2; [4],did not affect
same,synergistic induction of PDE4B2 by NTHi and roflumilast,PDE4B2; [4],significantly inhibited
COc1cccc(-c2cc(=O)c3ccccc3o2)c1N [PD98059],phosphorylation of p65 induced by overexpression of PKA-Cβ1 (inhibition),p65,not
Nc1ncnc2c1nc(Sc1ccc(Cl)cc1)n2[C@@H]1O[C@@H]2COP(O)(=S)O[C@H]2[C@H]1O (stereo partly shown) [Rp-8-CPT-cAMPS],phosphorylation of p65 induced by co-treatment of roflumilast with NTHi (inhibition),p65,inhibited
C[S+]([O-])c1ccc(-c2nc(-c3ccncc3)c(-c3ccc(F)cc3)[nH]2)cc1 (stereo not shown) [SB203580],phosphorylation of p65 induced by overexpression of PKA-Cβ1 (inhibition),p65,not
